Source: patent US6960611B2, “Sulfonyl-containing 2,3-diarylindole compounds, methods for making same, and methods of use thereof” (Institute of Materia Medica, priority 2002, dated 2005)

How the values were obtained:
COX-2 = target: T1, COX-2 (Mus musculus, UniProt Q05769); assay: COX-2 assay: PGE2 release (RIA) from LPS-stimulated mouse peritoneal macrophages; assay type: cell-based, mice; settings: LPS 1 mg/L 9 h, PGE2 by RIA
T1 construct: endogenous in cells; host or cells: thioglycollate-elicited peritoneal macrophages of male C57BL-6J mice, stimulated with LPS
T1 sequence (Q05769 18-604): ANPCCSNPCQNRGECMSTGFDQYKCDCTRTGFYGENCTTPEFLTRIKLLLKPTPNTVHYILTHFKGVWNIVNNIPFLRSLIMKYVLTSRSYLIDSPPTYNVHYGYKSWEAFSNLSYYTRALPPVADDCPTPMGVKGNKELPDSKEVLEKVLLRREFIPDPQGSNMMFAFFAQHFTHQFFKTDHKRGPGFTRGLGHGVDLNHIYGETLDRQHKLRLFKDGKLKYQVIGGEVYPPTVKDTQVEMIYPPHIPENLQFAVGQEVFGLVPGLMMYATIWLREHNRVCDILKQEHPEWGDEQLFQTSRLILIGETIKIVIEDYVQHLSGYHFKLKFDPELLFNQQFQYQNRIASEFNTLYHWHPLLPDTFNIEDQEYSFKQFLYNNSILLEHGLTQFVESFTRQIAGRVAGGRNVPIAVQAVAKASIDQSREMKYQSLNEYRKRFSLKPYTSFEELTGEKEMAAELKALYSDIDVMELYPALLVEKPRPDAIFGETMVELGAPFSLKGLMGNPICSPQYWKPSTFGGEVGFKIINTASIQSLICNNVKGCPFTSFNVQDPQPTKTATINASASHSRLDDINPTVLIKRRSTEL
Method: Cell culture: Adherent macrophages were harvested from the peritoneal cells of male mice (C57BL-6J, Level 2, from Experiment Animal Center, Academy of Military Medical Science) 3 d after the injection (ip) of brewer thioglycollate medium (5 mL/100 g body weight). […] Cell viability was examined by trypan blue dye exclusion. All incubation procedures were performed with 5% CO2 in humidified air at 37° C.
COX-2 assay: Macrophages were incubated with test compound at different concentrations or solvent (Me2SO) for 1 h and were stimulated with LPS 1 mg/L for 9 h. The amount of PGE2 in supernatants was measured by RIA. The inhibitory ratio was calculated using the same Formula as in COX-1 assay section. Cs, Ct, Cc refer to PGE2 concentration in supernatants of LPS, test compound, and control groups, respectively.
Statistical analysis: Data were expressed as the mean±SD of more than three independent experiments. Dose-inhibitory effect curves were fit through “uphill dose response curves, variable slope” using Prism, GraphPad (version 3.00): [formula]

[1] = tested on: carrageenan-induced foot pad edema; assay: Rat carrageenan-induced foot pad edema assay; assay type: in vivo; settings: 10 mg/kg oral
Method: Male Sprgue-Dawley rats (190-220 g ) were fasted with free access to water at least 16 h prior experiments. The rats were dosed orally with a 1 ml suspension of test compound in vehicle (0.5% methyl cellulose and 0.025% Tween-20) or with vehicle alone. One hour later a subplantar injection of 0.1 ml of 1% solution of carageenan in 0.9% strile saline was administered to the right hind foot pad. Paw volume was measured with a displacement plethysmometer 2, 3, and 4 h after carrageenan injection.

Molecule	IC50 (COX-2) [nM]	melting point [°C]	inhibitory percentage of edema ([1]; 2 h after carrageenan) [%]	inhibitory percentage of edema ([1]; 3 h after carrageenan) [%]	inhibitory percentage of edema ([1]; 4 h after carrageenan) [%]	edema (paw volume increase) ([1]; 2 h after carrageenan) [%]	edema (paw volume increase) ([1]; 3 h after carrageenan) [%]	edema (paw volume increase) ([1]; 4 h after carrageenan) [%]
2-(4-methylsulfonylphenyl)-3-phenyl-5-methylindole [Example 83]	0.278	–	46.1	47.1	46.1	–	–	–
Cc1ccc(-c2cc(C(F)(F)F)nn2-c2ccc(S(N)(=O)=O)cc2)cc1 [Celecoxib, reference compound]	–	–	–	51.6	48.0	31.1 ± 7.87	53.2 ± 12.6	48.8 ± 8.11
CS(=O)(=O)c1ccc(-c2[nH]c3ccccc3c2-c2ccccc2)cc1 [Example 59, 2-(4-methylsulfonylphenyl)-3-phenylindole]	3.86	221 to 222	–	55.8	56.1	40.8 ± 15.8	48.6 ± 14	41.2 ± 17.4
CS(=O)(=O)c1ccc(-c2[nH]c3ccccc3c2-c2ccc(Cl)cc2)cc1 [Example 61, 2-(4-methylsulfonylphenyl)-3-(4-chlorophenyl)indole]	146	198.5 to 200.5	–	51.1	50.4	14.6 ± 7.8	30.6 ± 10	25.7 ± 10.1
NS(=O)(=O)c1ccc(-c2[nH]c3ccccc3c2-c2ccc(Cl)cc2)cc1 [Example 62, 2-(4-aminosulfonylphenyl)-3-(4-chlorophenyl)indole]	33.5	298 to 300	–	24.2	25.6	16.6 ± 6.5	41.3 ± 13.7	38.6 ± 14.9
Cc1ccc(-c2c(-c3ccc(S(N)(=O)=O)cc3)[nH]c3ccccc23)cc1C [Example 68, 2-(4-aminosulfonylphenyl)-3-(3,4-dimethylphenyl)indole]	1.46	251 to 253	–	–	–	–	–	–
COc1ccc(-c2c(-c3ccc(S(N)(=O)=O)cc3)[nH]c3ccccc23)cc1 [Example 70, 2-(4-aminosulfonylphenyl)-3-(4-methoxyphenyl)indole]	–	–	–	44.7	38.5	21.9 ± 11.8	34.6 ± 10.4	31.9 ± 11.9
CS(=O)(=O)c1ccc(-c2[nH]c3ccccc3c2-c2ccc(F)cc2)cc1 [Example 71, 2-(4-methylsulfonylphenyl)-3-(4-fluorophenyl)indole]	–	224 to 226	–	11.1	18.4	44 ± 21.1	54.4 ± 9.8	49.1 ± 19
CS(=O)(=O)c1ccc(-c2[nH]c3ccc(Cl)cc3c2-c2ccc(Cl)cc2)cc1 [Example 73, 2-(4-methylsulfonylphenyl)-3-(4-chlorophenyl)-5-chloroindole]	85.1	281 to 283	–	–	–	–	–	–
CS(=O)(=O)c1ccc(-c2[nH]c3ccc(Cl)cc3c2-c2ccccc2)cc1 [Example 76, 2-(4-methylsulfonylphenyl)-3-phenyl-5-chloroindole]	–	281 to 283	36.9	52.8	53.2	45 ± 17.9	46 ± 15.4	37.7 ± 15.6
CS(=O)(=O)c1ccc(-c2[nH]c3ccc(Cl)cc3c2-c2ccccc2Cl)cc1 [Example 78, 2-(4-methylsulfonylphenyl)-3-(2-chlorophenyl) -5-chloro indole]	10	300 to 301.5	–	–	–	–	–	–
NS(=O)(=O)c1ccc(-c2[nH]c3ccc(Br)cc3c2-c2ccccc2)cc1 [Example 81, 2-(4-aminosulfonylphenyl)-3-phenyl-5-bromoindole]	5	310 to 312	–	–	–	–	–	–
NS(=O)(=O)c1ccc(-c2[nH]c3ccc(Cl)cc3c2-c2cccc(Cl)c2)cc1 [Example 85, 2-(4-aminosulfonylphenyl)-3-(3-chlorophenyl)-5-chloroindole]	–	–	19.8	36.1	23.4	57.2 ± 13.6	62.3 ± 7.2	61.7 ± 8.8
CS(=O)(=O)c1ccc(-c2[nH]c3ccc(Cl)cc3c2-c2cccc(Cl)c2)cc1 [Example 86, 2-(4-methylsulfonylphenyl)-3-(3-chlorophenyl)-5-chloroindole]	0.801	254 to 257	–	–	–	–	–	–
NS(=O)(=O)c1ccc(-c2[nH]c3ccccc3c2-c2ccc(O)cc2)cc1 [Example 96, 2-(4-aminosulfonylphenyl)-3-(4-hydroxyphenyl)indole]	6.44	241 to 243	–	–	–	–	–	–
CS(=O)(=O)c1ccc(C2=C(c3ccccc3)C(=O)OC2)cc1 [Rofecoxib, reference compound]	–	–	29.5	51.6	52.6	50.3 ± 5.1	47.2 ± 2.4	38.2 ± 6.7

Second part, led by results:

IC50 (COX-2) [nM]	melting point [°C]	Molecule	inhibitory percentage of edema ([1]; 2 h after carrageenan) [%]	inhibitory percentage of edema ([1]; 3 h after carrageenan) [%]	inhibitory percentage of edema ([1]; 4 h after carrageenan) [%]	edema (paw volume increase) ([1]; 2 h after carrageenan) [%]	edema (paw volume increase) ([1]; 3 h after carrageenan) [%]	edema (paw volume increase) ([1]; 4 h after carrageenan) [%]
0.161	231 to 232	NS(=O)(=O)c1ccc(-c2[nH]c3ccccc3c2-c2ccccc2)cc1 [Example 60, 2-(4-aminosulfonylphenyl)-3-phenylindole]	–	48.3	53.9	32.5 ± 9.45	56.9 ± 16.4	43.2 ± 13.9
0.369	225 to 226	CS(=O)(=O)c1ccc(-c2[nH]c3ccccc3c2-c2ccc(Br)cc2)cc1 [Example 63, 2-(4-methylsulfonylphenyl)-3-(4-bromophenyl)indole]	–	11.6	16.1	27.1 ± 10.1	55.3 ± 17	43.6 ± 9.5
0.0684	293 to 295	Cc1ccc(-c2c(-c3ccc(S(N)(=O)=O)cc3)[nH]c3ccccc23)cc1 [Example 66, 2-(4-aminosulfonylphenyl)-3-(4-methylphenyl)indole]	–	–	–	–	–	–
0.541	245 to 247	NS(=O)(=O)c1ccc(-c2[nH]c3ccc(Cl)cc3c2-c2ccc(Cl)cc2)cc1 [Example 74, 2-(4-aminosulfonylphenyl)-3-(4-chlorophenyl)-5-chloroindole]	–	–	–	–	–	–
100	–	NS(=O)(=O)c1ccc(-c2[nH]c3ccc(Cl)cc3c2-c2ccccc2Cl)cc1 [Example 77, 2-(4-aminosulfonylphenyl)-3-(2-chlorophenyl) -5-chloro indole]	–	–	–	–	–	–
1.41	262 to 264	CS(=O)(=O)c1ccc(-c2[nH]c3ccc(Br)cc3c2-c2ccccc2)cc1 [Example 82, 2-(4-methylsulfonylphenyl)-3-phenyl-5-bromoindole]	–	–	–	–	–	–
1.48	173 to 175	CS(=O)(=O)c1ccc(-c2[nH]c3ccc(Cl)cc3c2-c2ccc(S(C)(=O)=O)cc2)cc1 [Example 88, 2-(4-methylsulfonylphenyl)-3-(4-methylsulfonylphenyl)-5-chloroindole]	–	–	–	–	–	–
1.68	238 to 240	Cc1ccc(-c2[nH]c3ccc(Cl)cc3c2-c2ccc(S(C)(=O)=O)cc2)cc1 [Example 91, 2-(4-methylphenyl)-3-(4-methylsulfonylphenyl)-5-chloroindole]	–	–	–	–	–	–
–	271 to 273	CS(=O)(=O)c1ccc(-c2c(-c3ccc(O)cc3)[nH]c3ccc(Cl)cc23)cc1 [Example 95, 2-(4-hydroxyphenyl)-3-(4-methylsulfonylphenyl)-5-chloroindole]	–	–	–	–	–	–
0.184	221 to 222	CC(=O)NS(=O)(=O)c1ccc(-c2[nH]c3ccccc3c2-c2ccccc2)cc1 [Example 97, 2-(N-acetamide-sulfonylphenyl)-3-phenylindole]	–	–	–	–	–	–
